Results from patent US4335127A, “Piperidinylalkyl quinazoline compounds, composition and method of use” (Janssen Pharmaceutica, N.V., priority 1979, dated 1982).

Assays:
[1] = test system: lesions in the glandular area of the stomach and distension of the stomach induced by compound 48/80 in rats; details: rats treated with compound 48/80; cited from earlier work
[2] = test system: cyanosis of ears and extremities induced by compound 48/80 in rats; details: rats treated with compound 48/80; cited from earlier work
[3] = test system: Caudal Artery of the Rat (effect of serotonin); assay: Antagonistic Activity on the Effect of Serotonin on the Caudal Artery of the Rat (Test 1); details: serotonin 40 ng/ml; 5 minutes after adding the drug; rat caudal artery strips
Description: Caudal arteries from fasted male rats (210-235 g) are used in the test. Two helical strips having a length of 5-6 cm and a width of 2 mm are obtained from each artery and mounted vertically in a 100 ml organ bath containing an oxygenated Krebs-Henseleit solution. Submaximal contractions of the arterial strips are produced by adding single doses of serotonin (40 ng/ml) to the organ bath for 2 minutes with each time an interval of 10 minutes. The amplitude of the contraction is measured before and 5 minutes after adding the drug. After washing out, the agonist is added again three times in order to see whether the contraction is restored and normalized. […] In this connection the ED50 -values are the minimal concentrations of the concerned drugs which reduce the amplitude of the contraction to at least 50% of its normal value.

[4] = test system: lesions in the glandular area of the stomach and distension of the stomach induced by compound 48/80 in rats; assay: Gastric lesion test: lesions induced by compound 48/80 (Test 2); format: in vivo, rat (male, Wistar inbred strain); details: oral, 2 hours before compound 48/80 (1 mg/kg i.v.); stomachs inspected 4 hours after
Description: (§1) The shock, followed by dead, can be avoided if the rats are pretreated with a classical H 1 antagonist.
(§2) Male rats of a Wistar inbred strain, weighing 220-250 g, are starved overnight, water being available ad libitum. The test compounds are administered orally as a solution or as a suspension in aqueous medium. A control rat and a "blank" rat receive the test compound. One hour later 5-[4-(diphenylmethyl)-1-piperazinylmethyl]-1-methyl-1H-benzimidazole-2-methanol is administered subcutaneously to all rats at the dose of 2.5 mg/kg. […] Five minutes after the injection the intensity of purple-blue coloration (cyanosis) of the extremities is scored as 0 (absent), +(moderate) or ++(intense). Four hours after the intravenous injection of compound 48/80 the rats are decapitated and the stomachs are removed. Subsequently the stomachs are inspected for distension and contents (blood, fluid, food) and thoroughly rinsed. The macroscopic lesions are scored from 0 to + ++, 0 corresponding to complete absence of visible lesions and the highest score corresponding to reddish rough patches covering more than half the glandular area.

[5] = test system: cyanosis of ears and extremities induced by compound 48/80 in rats; assay: Cyanosis of ears and extremities induced by compound 48/80 (Test 2); format: in vivo, rat (male, Wistar inbred strain); details: Rattus norvegicus, po, 5 min; read-out: Cyanosis ED50 (dose at which cyanosis of ears and extremities is completely absent in 50% of the test rats)
Description: as §1, §2

Compound: CN1CCC(=C2c3ccccc3CCc3sccc32)CC1 [pizotifen]
- prevention of the abnormal gastric distension (known serotonin antagonists) [1]: prevent completely
- prevention of the lesions in the glandular area of the stomach (known serotonin antagonists) [1]: prevent completely
- prevention of the cyanosis of ears and extremities (known serotonin antagonists) [2]: prevent completely

Compound: O=C(CCCN1CCC2(CC1)C(=O)NCN2c1ccccc1)c1ccc(F)cc1 [spiperone]
- prevention of the abnormal gastric distension (known serotonin antagonists) [1]: prevent completely
- prevention of the lesions in the glandular area of the stomach (known serotonin antagonists) [1]: prevent completely
- prevention of the cyanosis of ears and extremities (known serotonin antagonists) [2]: prevent completely

Compound: CN1C[C@H](CNC(=O)OCc2ccccc2)C[C@@H]2c3cccc4c3c(cn4C)C[C@H]21 [metergoline]
- prevention of the abnormal gastric distension (known serotonin antagonists) [1]: prevent completely
- prevention of the lesions in the glandular area of the stomach (known serotonin antagonists) [1]: prevent completely
- prevention of the cyanosis of ears and extremities (known serotonin antagonists) [2]: prevent completely

Compound: CC[C@@H](CO)NC(=O)[C@@H]1C=C2c3cccc4c3c(cn4C)C[C@H]2N(C)C1 [methysergide]
- prevention of the abnormal gastric distension (known serotonin antagonists) [1]: prevent completely
- prevention of the lesions in the glandular area of the stomach (known serotonin antagonists) [1]: prevent completely
- prevention of the cyanosis of ears and extremities (known serotonin antagonists) [2]: prevent completely

Compound: CN1CCC(=C2c3ccccc3C=Cc3ccccc32)CC1 [cyproheptadine]
- prevention of the abnormal gastric distension (known serotonin antagonists) [1]: prevent completely
- prevention of the lesions in the glandular area of the stomach (known serotonin antagonists) [1]: prevent completely
- prevention of the cyanosis of ears and extremities (known serotonin antagonists) [2]: prevent completely

Compound: CN(C)CCCSc1ccccc1NC(=O)/C=C/c1ccccc1 [cinanserin]
- prevention of the abnormal gastric distension (known serotonin antagonists) [1]: prevent completely
- prevention of the lesions in the glandular area of the stomach (known serotonin antagonists) [1]: prevent completely
- prevention of the cyanosis of ears and extremities (known serotonin antagonists) [2]: prevent completely

Compound: NC(=O)C1(N2CCCCC2)CCN(CCCC(=O)c2ccc(F)cc2)CC1 [pipamperone]
- prevention of the abnormal gastric distension (known serotonin antagonists) [1]: prevent completely
- prevention of the lesions in the glandular area of the stomach (known serotonin antagonists) [1]: prevent completely
- prevention of the cyanosis of ears and extremities (known serotonin antagonists) [2]: prevent completely

Compound: CN1CCN2c3ccccc3Cc3ccccc3C2C1 (stereo not drawn) [mianserin]
- prevention of the abnormal gastric distension (known serotonin antagonists) [1]: prevent completely
- prevention of the lesions in the glandular area of the stomach (known serotonin antagonists) [1]: prevent completely
- prevention of the cyanosis of ears and extremities (known serotonin antagonists) [2]: prevent completely

Compound: Cc1nc2ccccc2c(=O)n1CCN1CCC(C(=O)c2ccc(F)cc2)CC1 [3-[2-[4-(4-fluorobenzoyl)-1-piperidinyl]ethyl]-2-methyl-4(3H)-quinazolinone]
- Caudal artery ED50 (minimal concentration which reduces the amplitude of the serotonin-induced contraction to at least 50% of its normal value) [3]: 0.6 ng/mL
- G. lesion ED50 (dose at which distension of the stomach and lesions in the glandular area are completely absent in 50% of the test rats) [4]: 0.16 mg/kg
- ED50 [5]: 0.16 mg/kg

Compound: O=C(c1ccc(F)cc1)C1CCN(CCn2c(=O)[nH]c3cc(Cl)ccc3c2=O)CC1
- Caudal artery ED50 (minimal concentration which reduces the amplitude of the serotonin-induced contraction to at least 50% of its normal value) [3]: 2 ng/mL
- G. lesion ED50 (dose at which distension of the stomach and lesions in the glandular area are completely absent in 50% of the test rats) [4]: 1.25 mg/kg
- ED50 [5]: 1.25 mg/kg
